Source: publication PMC10257182, “Discovery of senolytics using machine learning” (Nature Communications, 2023)
Where two headings read alike, the source gives them in different places.

How the values were obtained:
Format in all cases: cell-based, human
[1] = test system: senescent A549 cells (etoposide-induced); assay: Nuclei count senolytic assay, therapy-induced senescence (TIS) model, senescent cells; settings: Homo sapiens, A549, Senescent cells, mean, read-out: Mean % Cell Survival
Summary of the method: (§1)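 Senescence in A549 cells is induced by 48 h of 100 μM etoposide followed by three days without drug, alongside non-senescent controls. Cells are seeded, rested 24 h, then exposed 72 h to compounds (10 nM–10 μM final, […] steps, triplicate) before nuclei are counted by imaging.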

[2] = test system: senescent IMR90 ER:RAS cells (4-OHT-induced); assay: Nuclei count (Hoechst, high content imaging) senolytic assay, oncogene-induced senescence (OIS) model, senescent cells; settings: Homo sapiens
Summary of the method: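 Cells seeded, left 24 h, then dosed across a 10-point […] series (10 μM down to 10 nM) with DMSO control. After 72 h, wells were fixed, permeabilised and stained with Hoechst. Nuclei were counted by high-content imaging in senescent and non-senescent IMR90 ER:RAS cultures.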

[3] = test system: non-senescent control A549 cells; assay: Nuclei count senolytic assay, TIS model, non-senescent control cells; settings: Homo sapiens, A549, Control cells, mean, read-out: Mean % Cell Survival
Summary of the method: as §1

`Cc1cnc(C(=O)N[C@H]2CCCCC/C=C\[C@@H]3C[C@@]3(C(=O)NS(=O)(=O)C3CC3)NC(=O)[C@@H]3C[C@@H](Oc4nc5ccccc5c5ccccc45)CN3C2=O)cn1` [Paritaprevir, paritaprevir, reference compound] was tested, and the viability at 10 µM ([1]; log (dose) [M] -5) was 113%, the viability at 4.68 µM ([1]; log (dose) [M] -5.33) was 107% and the viability at 2.19 µM ([1]; log (dose) [M] -5.66) was 112%. It also gave a viability at 1 µM ([1]; log (dose) [M] -6) of 108%, a viability at 0.468 µM ([1]; log (dose) [M] -6.33) of 112% and a viability at 0.219 µM ([1]; log (dose) [M] -6.66) of 104%. It also gave a viability at 0.1 µM ([1]; log (dose) [M] -7) of 112%, a viability at 0.0468 µM ([1]; log (dose) [M] -7.33) of 115% and a viability at 0.0219 µM ([1]; log (dose) [M] -7.66) of 103%. The viability at 0.01 µM ([1]; log (dose) [M] -8) was 103%, the viability at 10 µM ([2]; IMR-90, 72 h, Senescent, log (dose) [M] -5, 72 h, mean n=3 (Fig 3C), read-out: Mean % Cell Survival) was 69.5% and the viability at 4.677 µM ([2]; IMR-90, 72 h, Senescent, log (dose) [M] -5.33, 72 h, mean n=3 (Fig 3C), read-out: Mean % Cell Survival) was 86.5%. For the same compound, the viability at 2.188 µM ([2]; IMR-90, 72 h, Senescent, log (dose) [M] -5.66, 72 h, mean n=3 (Fig 3C), read-out: Mean % Cell Survival) was 70.9%, the viability at 1 µM ([2]; IMR-90, 72 h, Senescent, log (dose) [M] -6, 72 h, mean n=3 (Fig 3C), read-out: Mean % Cell Survival) was 67.9% and the viability at 0.4677 µM ([2]; IMR-90, 72 h, Senescent, log (dose) [M] -6.33, 72 h, mean n=3 (Fig 3C), read-out: Mean % Cell Survival) was 78.9%. The viability at 0.2188 µM ([2]; IMR-90, 72 h, Senescent, log (dose) [M] -6.66, 72 h, mean n=3 (Fig 3C), read-out: Mean % Cell Survival) was 76.2%, the viability at 0.1 µM ([2]; IMR-90, 72 h, Senescent, log (dose) [M] -7, 72 h, mean n=3 (Fig 3C), read-out: Mean % Cell Survival) was 79.8% and the viability at 0.04677 µM ([2]; IMR-90, 72 h, Senescent, log (dose) [M] -7.33, 72 h, mean n=3 (Fig 3C), read-out: Mean % Cell Survival) was 84.7%. It also gave a viability at 0.02188 µM ([2]; IMR-90, 72 h, Senescent, log (dose) [M] -7.66, 72 h, mean n=3 (Fig 3C), read-out: Mean % Cell Survival) of 86.9%, a viability at 0.01 µM ([2]; IMR-90, 72 h, Senescent, log (dose) [M] -8, 72 h, mean n=3 (Fig 3C), read-out: Mean % Cell Survival) of 70.3% and a viability at 4.677 µM ([2]; IMR-90, Senescent cells, log (dose) [M] -5.33, individual replicates, SUP FIG 4C, read-out: % Cell Survival) of 87.6%. For the same compound, the viability at 0.1 µM ([2]; IMR-90, Senescent cells, log (dose) [M] -7, individual replicates, SUP FIG 4C, read-out: % Cell Survival) was 75%, the viability at 10 µM ([2]; IMR-90, Senescent, log (dose) [M] -5, read-out: % Cell Survival) was 115% and the viability at 4.677 µM ([2]; IMR-90, Senescent, log (dose) [M] -5.33, read-out: % Cell Survival) was 110%. It also gave a viability at 2.188 µM ([2]; IMR-90, Senescent, log (dose) [M] -5.66, read-out: % Cell Survival) of 113%, a viability at 1 µM ([2]; IMR-90, Senescent, log (dose) [M] -6, read-out: % Cell Survival) of 105% and a viability at 0.4677 µM ([2]; IMR-90, Senescent, log (dose) [M] -6.33, read-out: % Cell Survival) of 111%. It also gave a viability at 0.1 µM ([2]; IMR-90, Senescent, log (dose) [M] -7, read-out: % Cell Survival) of 112%, a viability at 0.04677 µM ([2]; IMR-90, Senescent, log (dose) [M] -7.33, read-out: % Cell Survival) of 118% and a viability at 0.01 µM ([2]; IMR-90, Senescent, log (dose) [M] -8, read-out: % Cell Survival) of 107%. The viability at 10 µM ([3]; log (dose) [M] -5) was 96.8%, the viability at 4.68 µM ([3]; log (dose) [M] -5.33) was 93% and the viability at 2.19 µM ([3]; log (dose) [M] -5.66) was 96%. The viability at 1 µM ([3]; log (dose) [M] -6) was 95.4%, the viability at 0.468 µM ([3]; log (dose) [M] -6.33) was 98.6% and the viability at 0.219 µM ([3]; log (dose) [M] -6.66) was 97.7%. It also gave a viability at 0.1 µM ([3]; log (dose) [M] -7) of 95.4%, a viability at 0.0468 µM ([3]; log (dose) [M] -7.33) of 95.7% and a viability at 0.0219 µM ([3]; log (dose) [M] -7.66) of 95.5%. It also gave a viability at 0.01 µM ([3]; log (dose) [M] -8) of 101%.
